Earlier results in patent US20090023643A1, “Methods For Treating Acute Myocardial Infarction By Administering Calcitonin Gene Related Peptide And Compositions Containing The Same” (VasoGenix Pharmaceuticals, Inc., priority 2004, published 2009).

Assays:
IL-10 = details: Torii et al 1997
IL-1β = details: Torii et al 1997
IL-12 = details: Torii et al 1997
B7-2 = details: Ashana et al 1995; Torii et al 1997
IL-7 = details: Fernandez et al 2000
IL-16 = details: Dunzendorfer et al 2002-2003
[1] = test system: IGF-1 (insulin-like growth factor-1); details: R. Zfoncea et al 1997
TNF-α = details: lipopolysaccharide induced, macrophages; Feng et al 1997

In the case of CGRP, the “CGRP activity: induced anti-inflammatory cytokines, IL-10; benefits” value (IL-10) is listed as “Inhibits monocyte inflammation”, the “CGRP activity: cytokines inhibited or suppressed, IL-1β; benefits” value (IL-1β) is listed as “Inhibits proliferation of T-cells” and the “CGRP activity: cytokines inhibited or suppressed, IL-12; benefits” value (IL-12) is listed as “Suppresses Natural Killer Cell Stimulating factor (NKSF)”. For the same substance, the “CGRP activity: cytokines inhibited or suppressed, B7-2; benefits” value (B7-2) was “Inhibits Granulocyte-Macrophage Colony”, the “CGRP activity: cytokines inhibited or suppressed, IL-7; benefits” value (IL-7) was “Inhibits pre B-cell development and T-cell development” and the “CGRP activity: cytokines inhibited or suppressed, IL-16; benefits” value (IL-16) was “Inhibits macrophage chemotaxis”. The “expression of IGF-1” value [1] was “increases expression of IGF-1” and the “CGRP activity: cytokines inhibited or suppressed, TNF-α; benefits” value (TNF-α) was “Inhibits lipopolysaccharide induced TNF-α in macrophages”.
